Test results from ChEMBL document CHEMBL1782019, “Pyridones as glucokinase activators: identification of a unique metabolic liability of the 4-sulfonyl-2-pyridone heterocycle” (Bioorg Med Chem Lett, 2009).

Legend:
[1] = biological target: T1, Hexokinase-4 (Homo sapiens, UniProt P35557)
T1 sequence (P35557 whole entry): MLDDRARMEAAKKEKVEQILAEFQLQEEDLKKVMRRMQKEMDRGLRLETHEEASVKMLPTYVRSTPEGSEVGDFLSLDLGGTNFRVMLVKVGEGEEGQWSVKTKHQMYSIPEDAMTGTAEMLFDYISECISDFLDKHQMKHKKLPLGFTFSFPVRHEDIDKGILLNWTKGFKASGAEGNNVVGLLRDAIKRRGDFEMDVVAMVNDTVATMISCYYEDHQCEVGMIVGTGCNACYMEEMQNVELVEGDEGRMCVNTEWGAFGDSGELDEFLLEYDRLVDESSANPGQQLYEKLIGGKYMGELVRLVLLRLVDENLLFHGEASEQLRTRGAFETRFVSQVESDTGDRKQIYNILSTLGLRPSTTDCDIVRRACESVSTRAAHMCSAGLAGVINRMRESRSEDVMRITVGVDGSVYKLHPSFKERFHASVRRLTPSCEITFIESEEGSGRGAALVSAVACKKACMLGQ
Description: Activation of human recombinant glucokinase using 6.5 mM glucose by spectrophotometry

[2] = Half life in rat liver microsome at 1 uM by LC/MS/MS analysis; type: ADME; details: liver microsomes
[3] = Hepatic clearance in rat liver microsome at 1 uM by LC/MS/MS analysis; type: ADME; details: liver microsomes
[4] = Hepatic clearance in human liver microsome at 1 uM by LC/MS/MS analysis; type: ADME; details: liver microsomes
[5] = Half life in human liver microsome at 1 uM by LC/MS/MS analysis; type: ADME; details: liver microsomes
[6] = Clearance in Sprague-Dawley rat at 0.5 mg/kg, iv and 5 mg/kg, po; type: ADME, organism-based; details: in vivo
[7] = Fraction unbound in Sprague-Dawley rat at 0.5 mg/kg, iv and 5 mg/kg, po; type: ADME, organism-based; details: plasma
[8] = Bioavailability in Sprague-Dawley rat at 0.5 mg/kg, iv and 5 mg/kg, po; type: ADME, organism-based; details: in vivo
[9] = Half life in Sprague-Dawley rat at 0.5 mg/kg, iv and 5 mg/kg, po; type: ADME, organism-based; details: in vivo

SMILES	EC50 [1]	also measured
CC(C)S(=O)(=O)c1ccn([C@@H](CC2CCCC2)C(=O)Nc2cc[nH]n2)c(=O)c1	720 nM	
Cc1ccc(NC(=O)[C@H](CC2CCCC2)n2cc(C)c(S(C)(=O)=O)cc2=O)nc1	440 nM	
Cc1ccc(NC(=O)[C@H](CC2CCC(F)(F)CC2)n2ccc(S(=O)(=O)C(C)C)cc2=O)nc1	160 nM	half-life at 1 µM [2]: 42 min; CLhep predicted at 1 µM [3]: 36 mL/min/kg; CLhep predicted at 1 µM [4]: 8 mL/min/kg; half-life at 1 µM [5]: 73 min
Cc1ccc(NC(=O)[C@H](CC2CCCC2)n2cc(Cl)c(S(=O)(=O)C(C)C)cc2=O)nc1	260 nM	
Cn1ccc(NC(=O)[C@H](CC2CCCC2)n2ccc(S(=O)(=O)C3CCC3)cc2=O)n1	260 nM	
Cc1ccc(NC(=O)[C@H](CC2CCCCC2)n2ccc(S(=O)(=O)C(C)C)cc2=O)nc1	240 nM	
Cc1ccc(NC(=O)[C@H](CC2CCCC2)n2ccc(S(=O)(=O)C3CCC3)cc2=O)nc1	60 nM	
Cc1cnc(NC(=O)[C@H](CC2CCCC2)n2ccc(S(C)(=O)=O)cc2=O)cn1	3500 nM	clearance [6]: 337 mL/min/kg; fraction unbound [7]: 0.35; half-life at 1 µM [2]: 56 min; CLhep predicted at 1 µM [3]: 31 mL/min/kg; CLhep predicted at 1 µM [4]: < 5 mL/min/kg; bioavailability [8]: 2%; half-life [9]: 12 min; half-life at 1 µM [5]: > 120 min
Cc1ccc(NC(=O)[C@H](CC2CCCC2)n2ccc(S(=O)(=O)C(C)C)c(Cl)c2=O)nc1	70 nM	
CC(C)S(=O)(=O)c1ccn([C@@H](CC2CCCC2)C(=O)Nc2nccs2)c(=O)c1	1300 nM	
Cc1ccc(NC(=O)[C@H](CC2CCCC2)n2cc(Cl)c(S(C)(=O)=O)cc2=O)nc1	480 nM	
CCS(=O)(=O)c1ccn([C@@H](CC2CCCC2)C(=O)Nc2ccc(C)cn2)c(=O)c1	500 nM	
Cc1ccc(NC(=O)[C@H](CC2CCCC2)n2ccc(S(=O)(=O)C3CC3)cc2=O)nc1	110 nM	
Cc1ccc(NC(=O)[C@H](Cc2ccccc2)n2ccc(S(=O)(=O)C(C)C)cc2=O)nc1	3300 nM	
Cc1csc(NC(=O)c2cc(Sc3nccn3C)c(F)cc2N)n1	620 nM	
Cc1ccc(NC(=O)[C@H](CC2CCCC2)n2ccc(S(C)(=O)=O)cc2=O)nc1	560 nM	half-life at 1 µM [2]: 9 min; CLhep predicted at 1 µM [3]: 58 mL/min/kg; CLhep predicted at 1 µM [4]: 5 mL/min/kg; half-life at 1 µM [5]: > 120 min
CC(C)S(=O)(=O)c1ccn([C@@H](CC2CCCC2)C(=O)Nc2ccn(C)n2)c(=O)c1	910 nM	clearance [6]: 164 mL/min/kg; fraction unbound [7]: 0.59; half-life at 1 µM [2]: 8 min; CLhep predicted at 1 µM [3]: 58 mL/min/kg; CLhep predicted at 1 µM [4]: 10 mL/min/kg; bioavailability [8]: 8%; half-life [9]: 12 min; half-life at 1 µM [5]: 93 min
CS(=O)(=O)c1cc(=O)n([C@@H](CC2CCCC2)C(=O)Nc2ccc(Cl)cn2)cc1Cl	140 nM	
Cc1ccc(NC(=O)[C@H](CC2CCC2)n2ccc(S(=O)(=O)C(C)C)cc2=O)nc1	670 nM	

Further lines, with some results ahead:

EC50 [1]	SMILES	also measured
160 nM	Cc1ccc(NC(=O)[C@H](CC2CCCC2)n2cc(C)c(S(=O)(=O)C(C)C)cc2=O)nc1	
230 nM	Cc1ccc(NC(=O)[C@H](CC2CCCC2)n2ccc(S(=O)(=O)C(C)C)cc2=O)nc1	
590 nM	O=C(Nc1cnccn1)[C@H](CC1CCCC1)n1ccc(S(=O)(=O)C2CCC2)cc1=O	
1300 nM	O=C(Nc1cnccn1)[C@H](CC1CCCC1)n1ccc(S(=O)(=O)C2CC2)cc1=O	
700 nM	Cc1cnc(NC(=O)[C@H](CC2CCCC2)n2cc(Cl)c(S(=O)(=O)C(C)C)cc2=O)cn1	
600 nM	CC(C)S(=O)(=O)c1ccn([C@@H](CC2CCCC2)C(=O)Nc2ccccn2)c(=O)c1	
510 nM	Cc1ccc(NC(=O)[C@H](CC(C)C)n2ccc(S(=O)(=O)C(C)C)cc2=O)nc1	
1500 nM	Cn1ccc(NC(=O)[C@H](CC2CCCC2)n2ccc(S(=O)(=O)C3CC3)cc2=O)n1	
330 nM	CC(C)S(=O)(=O)c1ccn([C@@H](CC2CCCC2)C(=O)Nc2ccc(C(F)(F)F)cn2)c(=O)c1	
1500 nM	CCS(=O)(=O)c1ccn([C@@H](CC2CCOCC2)C(=O)Nc2ccc(C)cn2)c(=O)c1	half-life at 1 µM [2]: > 120 min; CLhep predicted at 1 µM [3]: < 18 mL/min/kg; CLhep predicted at 1 µM [4]: < 5 mL/min/kg; half-life at 1 µM [5]: > 120 min
